{"source": "patent US9963457B2", "about": "“Crystal of 5-((2-(6-amino)-9H-purin-9-yl)ethyl)amino)pentan-1-o1” (FOREVER CHEER INTERNATIONAL LIMITED, priority 2016, dated 2018)", "key": {"[1]": {"tested_on": "mice after neuropathic pain", "assay": "Bright/dark box test, neuropathic pain", "format": "in vivo", "details": "3 mg/kg IP, 3 mg/kg"}, "[2]": {"assay": "Stability test of the crystal form (stress, long-term and accelerated test)", "format": "physicochemical", "procedure": "Stress test, long-term stable test and accelerated stability test of the compound with the crystal form:\nThe stability of the compound with such a crystal form was investigated under conditions of a high temperature (60° C.), high humidity (92.5% RH), strong light irradiation (5 Klx), 40° C./75% RH (for accelerated test) and 25° C./60% RH (for long term test), in accordance with “Guidelines for Stability Testing of bulk pharmaceutical chemicals and formulation” (Chinese Pharmacopoeia 2015 Edition, four main sections of general requirements 9001).\n10 mg of the crystalline sample involved in the Examples of the present invention was accurately weighed and placed on the bottom of a glass sample vial, and then spread out to form a thin layer. The samples for test under high temperature and high humidity conditions and for the long-term test were contained in vials sealed with aluminum-foil paper, and some small holes were made on the aluminum-foil paper to ensure that the sample can be fully in contact with ambient conditions; The samples for test under strong light irradiation and for the accelerated test were contained in vials sealed with screw bottle caps. The samples placed under different conditions were taken and analyzed on day 5, 10, and 30, and the analysis results were compared with the initial test results on day 0."}, "[3]": {"tested_on": "mice treated with yeast polysaccharide", "assay": "Visceral pain behavior test in chronic visceral pain model", "format": "in vivo", "details": "3 mg/kg IP", "procedure": "Chronic Visceral Pain Model\nThe visceral pain is induced by injecting yeast polysaccharide into the mice colony, and the yeast polysaccharide is derived from Saccharomyces cerevisiae (Sigma), wherein one kind of dextran is resident on the cell wall of the yeast and is identified as a protein-carbohydrate complex. Specifically, the mice were anesthetized after inhaling 1-3% isoflurane, and then a […] suspension of yeast polysaccharide (formulated as a 30 mg/ml solution in physiological saline) was injected into the colon of the mice by using a 24 mm long plastic feed needle within 2 minutes. The control group was injected with 0.1 ml physiological saline. The yeast polysaccharide or physiological saline was injected daily for 3 days. A visceral pain behavior test was carried out according to the Laird procedure. The number of times the mice licking the abdomen within 10 minutes was recorded, excluding other grooming behaviors, stretching of whole body, pressing the abdomen against the floor, and an 1-2-second arched posture. On day 1, 7 and 14 after the injection into the colon, an open field test was carried out from 9 am to 12 pm, and the entire test was a double-blind test. Prior to the behavioral test, the mice were acclimated for 30 minutes in an observation room. The mice were placed at the middle of a new open zone (43.2×43.2×30.5 cm^3) with micro light (<50 lux) and a fan. The movement distance, vertical count, movement count, stereotypic behavior count, and jumping count of animals were recorded within 30 minutes by means of an activity monitoring system equipped with multiple pairs of packaged light beam sets.\n(§1) The physiological saline, non-crystalline NB001 (3 mg/kg), the crystal of the present invention (3 mg/kg), and Gabapentin (30 mg/kg) as a positive control were intraperitoneally injected (IP) into the mice treated with yeast polysaccharide respectively. The behaviors of Mice were observed 28 days after the yeast polysaccharide treatment."}, "[4]": {"tested_on": "mice after neuropathic pain", "assay": "Elevated plus maze test (EPM), neuropathic pain", "format": "in vivo", "details": "3 mg/kg IP, 3 mg/kg", "procedure": "An anxious animal model of the prior art—the elevated plus maze test (EPM) was adopted. The mice were acclimated for 30 minutes in the room prior to the behavior observation. The EPM was composed of two open arms (250 lux) and two closed arms (350 lux) arranged opposite to each other. For each test, an individual animal was placed at the center of the test position and allowed to move freely. The test is carried out for 5 minutes. The number of entering the test position for each arm and the time spent therefore were recorded.\nThe other two sets of tests were conducted to test the effect of the crystal of the present invention on inhibiting anxiety caused by chronic pain and neuropathic pain.\nas §1, with “The EPM test tested the anxiety behavior of mice after the test treatment. The physiological” for “The physiological”"}, "[5]": {"details": "Accelerated test (40° C./75% RH), Day 30"}, "[6]": {"details": "Long-term test (25° C./60% RH), Day 30"}, "[7]": {"details": "Stress test, high humidity (92.5% RH), Day 5"}, "[8]": {"details": "Stress test, high humidity (92.5% RH), Day 10"}, "[9]": {"details": "Stress test, high humidity (92.5% RH), Day 30"}, "[10]": {"details": "Stress test, high temperature (60° C.), Day 5"}, "[11]": {"details": "Stress test, high temperature (60° C.), Day 10"}, "[12]": {"details": "Stress test, high temperature (60° C.), Day 30"}, "[13]": {"details": "Stress test, strong light irradiation (5 Klx), Day 10"}}}
{"smiles": "Nc1ncnc2c1ncn2CCNCCCCCO", "note": "[New NB001, 5-(((2-(6-amino)-9H-purin-9-yl)ethyl)amino)pentan-1-ol]", "values": [{"measurement": "% time in the open arm", "setting": "[1]", "result": "18.5 ± 1.4 (8) %"}, {"measurement": "Characteristics", "setting": "[2]; [5]", "result": "off-white powder"}, {"measurement": "Content (%)", "setting": "[2]; [5]", "result": 99.51, "unit": "%"}, {"measurement": "Total Impurities (%)", "setting": "[2]; [5]", "result": 0.49, "unit": "%"}, {"measurement": "Characteristics", "setting": "[2]; Day 0", "result": "off-white powder"}, {"measurement": "Content (%)", "setting": "[2]; Day 0", "result": 99.39, "unit": "%"}, {"measurement": "Total Impurities (%)", "setting": "[2]; Day 0", "result": 0.61, "unit": "%"}, {"measurement": "Characteristics", "setting": "[2]; [6]", "result": "off-white powder"}, {"measurement": "Content (%)", "setting": "[2]; [6]", "result": "off-"}, {"measurement": "Total Impurities (%)", "setting": "[2]; [6]", "result": 0.60, "unit": "%"}, {"measurement": "Characteristics", "setting": "[2]; [7]", "result": "off-white powder"}, {"measurement": "Content (%)", "setting": "[2]; [7]", "result": 99.51, "unit": "%"}, {"measurement": "Total Impurities (%)", "setting": "[2]; [7]", "result": 0.49, "unit": "%"}, {"measurement": "Characteristics", "setting": "[2]; [8]", "result": "off-white powder"}, {"measurement": "Content (%)", "setting": "[2]; [8]", "result": 99.41, "unit": "%"}, {"measurement": "Total Impurities (%)", "setting": "[2]; [8]", "result": 0.59, "unit": "%"}, {"measurement": "Characteristics", "setting": "[2]; [9]", "result": "off-white powder"}, {"measurement": "Content (%)", "setting": "[2]; [9]", "result": 99.53, "unit": "%"}, {"measurement": "Total Impurities (%)", "setting": "[2]; [9]", "result": 0.47, "unit": "%"}, {"measurement": "Characteristics", "setting": "[2]; [10]", "result": "off-white powder"}, {"measurement": "Content (%)", "setting": "[2]; [10]", "result": 99.47, "unit": "%"}, {"measurement": "Total Impurities (%)", "setting": "[2]; [10]", "result": 0.53, "unit": "%"}, {"measurement": "Characteristics", "setting": "[2]; [11]", "result": "off-white powder"}, {"measurement": "Content (%)", "setting": "[2]; [11]", "result": 99.52, "unit": "%"}, {"measurement": "Total Impurities (%)", "setting": "[2]; [11]", "result": 0.48, "unit": "%"}, {"measurement": "Characteristics", "setting": "[2]; [12]", "result": "off-white powder"}, {"measurement": "Content (%)", "setting": "[2]; [12]", "result": 99.43, "unit": "%"}, {"measurement": "Total Impurities (%)", "setting": "[2]; [12]", "result": 0.57, "unit": "%"}, {"measurement": "Characteristics", "setting": "[2]; [13]", "result": "off-white powder"}, {"measurement": "Content (%)", "setting": "[2]; [13]", "result": 99.48, "unit": "%"}, {"measurement": "Total Impurities (%)", "setting": "[2]; [13]", "result": 0.52, "unit": "%"}, {"measurement": "stability under various test conditions", "setting": "[2]; all test conditions of Table 5", "result": "good"}, {"measurement": "Number of visceral pain scores", "setting": "[3]; 28 days after yeast polysaccharide treatment", "result": "11.0 ± 0.7"}, {"measurement": "therapeutic effect on chronic pain as compared with the positive control group", "setting": "[3]; Table 6, listed as the crystal of the present invention", "result": "extremely significant"}, {"measurement": "% time in the open arm", "setting": "[4]", "result": "18.5 ± 1.4 (8) %"}]}
